Legend:
[1] = molecular target: T1, ULK1 kinase (Homo sapiens, UniProt O75385, E37A/K38A); experiment: Biochemical assay for ULK1 (coupled pyruvate kinase/lactate dehydrogenase assay); conditions: 1 mM ATP, 0.1 nM ULK1; read-out: ULK1 (inhibition of biochemical activity), IC50
T1 construct: (residues 1-283; ID NO: 1); purchased Beryllium
T1 sequence (O75385 1-283 E37A/K38A): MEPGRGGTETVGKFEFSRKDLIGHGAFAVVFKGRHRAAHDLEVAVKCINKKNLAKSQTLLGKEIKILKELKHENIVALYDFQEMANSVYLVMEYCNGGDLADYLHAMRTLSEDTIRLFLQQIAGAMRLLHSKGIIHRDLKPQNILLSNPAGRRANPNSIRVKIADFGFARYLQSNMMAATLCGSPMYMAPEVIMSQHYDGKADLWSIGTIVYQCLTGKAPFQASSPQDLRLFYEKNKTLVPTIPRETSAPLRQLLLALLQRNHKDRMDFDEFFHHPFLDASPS
Method in brief: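 IC50 values were fitted to percent inhibition, normalised with no-compound and known-inhibitor controls, using rates from 2–3 h of a 6 h read at 30 °C. ADP was coupled through pyruvate kinase/lactate dehydrogenase to NADH loss at 340 nm.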

[2] = system: ULK kinase substrate ATG13 (pS318-ATG13) in MiaPaCa-2 cells; experiment: pATG13 levels of mutant KRas MiaPaCa-2 cells after treatment with ULK inhibitors in combination with trametinib (ELISA); format: cell-based, human
Method in brief: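 MiaPaCa-2 cells grown overnight, then dosed with test compound titration plus trametinib (final 250 nM) or DMSO, overnight at 37° C. Lysate pS318-ATG13 measured by sandwich ELISA (total ATG13 capture, biotinylated pS318 detection, HRP/TMB, A450 minus A540); % phosphorylation vs control wells fitted to IC50.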

[3] = molecular target: T2, ULK2 kinase (Homo sapiens, UniProt Q8IYT8); experiment: Biochemical assay for ULK2 (coupled pyruvate kinase/lactate dehydrogenase assay); conditions: 1 mM ATP, 1 nM ULK2; read-out: ULK2 (inhibition of biochemical activity), IC50
T2 construct: (residues 1-306 with N-terminal GST and His tag; ID NO: 2); purchased Signal Chem U02-11G
T2 sequence (Q8IYT8 with tags, fused parts or gaps): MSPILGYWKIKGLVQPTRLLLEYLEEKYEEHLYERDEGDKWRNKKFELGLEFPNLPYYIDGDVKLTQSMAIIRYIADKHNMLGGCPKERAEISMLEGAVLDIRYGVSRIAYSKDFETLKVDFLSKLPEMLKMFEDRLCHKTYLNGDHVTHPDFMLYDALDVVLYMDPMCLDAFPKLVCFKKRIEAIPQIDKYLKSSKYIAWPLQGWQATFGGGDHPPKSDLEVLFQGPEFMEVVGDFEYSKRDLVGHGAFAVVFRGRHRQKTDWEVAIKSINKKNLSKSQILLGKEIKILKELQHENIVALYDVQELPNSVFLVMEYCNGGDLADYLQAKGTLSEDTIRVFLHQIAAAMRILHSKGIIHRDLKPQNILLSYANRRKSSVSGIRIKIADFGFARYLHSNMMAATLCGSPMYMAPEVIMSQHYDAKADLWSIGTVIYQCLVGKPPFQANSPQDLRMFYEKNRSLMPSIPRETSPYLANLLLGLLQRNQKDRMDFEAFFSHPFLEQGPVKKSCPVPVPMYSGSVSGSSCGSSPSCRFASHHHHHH
Method in brief: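 Continuous PK/LDH-coupled NADH oxidation assay (A340) with 1 nM ULK2, 200 μM ULKtide and 1 mM ATP in Tris pH 7.5, 15 mM MgCl2, 1% DMSO, read 6 h at 30° C. Rates from the 2-3 h window converted to percent inhibition against no-compound and known-inhibitor controls; IC50 by four-parameter sigmoidal fit.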

SMILES | IC50 [1] [nM] | IC50 [2] [nM] | IC50 [3] [nM]
CC/C(Nc1ccc(N2C[C@H]3CN(C)C[C@H]3C2)cc1)=C1/C(=O)Nc2ccc(C(=O)NCC(C)C)cc21 [Example 63] | 10 to 100 | ≤ 100 | 10 to 100
CC/C(Nc1ccc(N2C[C@H]3CN(C)C[C@H]3C2)cc1)=C1/C(=O)Nc2ccc(C(=O)NC[C@H]3CCCO3)cc21 [Example 64] | 10 to 100 | ≤ 100 | 10 to 100
CC/C(Nc1ccc(N2CC3CC(C2)N3C)cc1)=C1/C(=O)Nc2ccc(C(=O)NCC(C)C)cc21 [Example 67] | ≤ 10 | ≤ 100 | 10 to 100
CC/C(Nc1ccc(N2CC3CC(C2)N3C)cc1)=C1/C(=O)Nc2ccc(C(=O)NC[C@H]3CCCO3)cc21 [Example 68] | ≤ 10 | ≤ 100 | 10 to 100
CC/C(Nc1ccc(N2CCN(C)CC2)nc1)=C1/C(=O)Nc2ccc(C(=O)NCC(F)(F)F)cc21 [Example 74] | 10 to 100 | ≤ 100 | 100 to 500
CC/C(Nc1ccc(-c2nc(C)no2)cc1)=C1/C(=O)Nc2ccc(C(=O)NCC(F)(F)F)cc21 [Example 78] | 10 to 100 | 100 to 300 | 10 to 100
CC/C(Nc1ccc(-c2cn(C)nn2)cc1)=C1/C(=O)Nc2ccc(C(=O)NCC(F)(F)F)cc21 [Example 79] | 10 to 100 | ≤ 100 | 10 to 100
CC/C(Nc1cnn(C2CCN(C(C)C)CC2)c1)=C1/C(=O)Nc2ccc(C(=O)NC[C@H]3CC(F)(F)CO3)cc21 [Example 80] | ≤ 10 | ≤ 100 | ≤ 10
CC/C(Nc1cnn(C2CCN(C(C)C)CC2)c1)=C1/C(=O)Nc2ccc(C(=O)NCCOC(F)(F)F)cc21 [Example 82] | ≤ 10 | ≤ 100 | ≤ 10
CC/C(Nc1cnn(C2CCN(C(C)C)CC2)c1)=C1/C(=O)Nc2ccc(C(=O)NC[C@H]3CCCCO3)cc21 [Example 83] | ≤ 10 | ≤ 100 | 10 to 100
CC/C(Nc1cnn(C2CC3(C2)CN(C)C3)c1)=C1/C(=O)Nc2ccc(C(=O)NCC(F)(F)F)cc21 [Example 84] | ≤ 10 | ≤ 100 | ≤ 10
CC/C(Nc1ccc(N2CC3(COC3)C2)cc1)=C1/C(=O)Nc2ccc(C(=O)NCC(F)(F)F)cc21 [Example 85] | 10 to 100 | 100 to 300 | 10 to 100
CC/C(Nc1cnn(C2CN(C)C2)c1)=C1/C(=O)Nc2ccc(C(=O)NCC(F)(F)F)cc21 [Example 86] | ≤ 10 | ≤ 100 | 10 to 100
CC/C(Nc1cnn(C2CN(C)C2)c1)=C1/C(=O)Nc2ccc(C(=O)NCC(C)C)cc21 [Example 87] | 10 to 100 | ≤ 100 | 10 to 100
CC/C(Nc1cnn(C2CN(C3CCC3)C2)c1)=C1/C(=O)Nc2ccc(C(=O)NC[C@H]3CCCO3)cc21 [Example 88] | ≤ 10 | ≤ 100 | 10 to 100
CC/C(Nc1cnn(C2CN(C)C2)c1)=C1/C(=O)Nc2ccc(C(=O)NCCOC)cc21 [Example 89] | 10 to 100 | 100 to 300 | 100 to 500
CC/C(Nc1cnn(C2CN(CC)C2)c1)=C1/C(=O)Nc2ccc(C(=O)NC[C@H]3CCCO3)cc21 [Example 90] | ≤ 10 | ≤ 100 | 10 to 100
CC/C(Nc1cnn(C2CN(C(C)C)C2)c1)=C1/C(=O)Nc2ccc(C(=O)NC[C@H]3CCCO3)cc21 [Example 91] | ≤ 10 | ≤ 100 | 10 to 100
CC/C(Nc1ccc(N2CCN(C(C)C)CC2)cn1)=C1/C(=O)Nc2cc(F)c(C(=O)NCC(F)(F)F)cc21 [Example 92] | 100 to 500 | ≤ 100 | 100 to 500

Continued, values first:

IC50 [1] [nM] | IC50 [2] [nM] | IC50 [3] [nM] | SMILES
≤ 10 | ≤ 100 | 10 to 100 | CC/C(Nc1cnn(C2CCN(C(C)C)CC2)c1)=C1/C(=O)Nc2ccc(C(=O)NC[C@H]3CCCO3)cc21 [Example 1, (R,Z)-3-(1-((1-(1-isopropylpiperidin-4-yl)-1H-pyrazol-4-yl)amino)propylidene)-2-oxo-N-((tetrahydrofuran-2-yl)methyl)indoline-5-carboxamide]
≤ 10 | ≤ 100 | 10 to 100 | CC/C(Nc1ccc(N2CC3(CN(C)C3)C2)cc1)=C1/C(=O)Nc2ccc(C(=O)NCC(C)C)cc21 [Example 65]
≤ 10 | ≤ 100 | 10 to 100 | CC/C(Nc1ccc(N2CC3(CN(C)C3)C2)cc1)=C1/C(=O)Nc2ccc(C(=O)NC[C@H]3CCCO3)cc21 [Example 66]
≤ 10 | ≤ 100 | 10 to 100 | CC/C(Nc1ccc(N2CC3CC2CN3C)cc1)=C1/C(=O)Nc2ccc(C(=O)NCC(C)C)cc21 (stereo not drawn) [Example 69]
≤ 10 | ≤ 100 | 10 to 100 | CC/C(Nc1ccc(N2CC3CC2CN3C)cc1)=C1/C(=O)Nc2ccc(C(=O)NC[C@H]3CCCO3)cc21 (stereo partly drawn) [Example 70]
≤ 10 | ≤ 100 | 10 to 100 | CC/C(Nc1ccc(N2CC3CC2CN3C)cc1)=C1/C(=O)Nc2ccc(C(=O)NCC(F)(F)F)cc21 (stereo not drawn) [Example 71]
≤ 10 | ≤ 100 | ≤ 10 | CC/C(Nc1ccc(N2CCN(C)CC2)cn1)=C1/C(=O)Nc2ccc(C(=O)NCC(F)(F)F)cc21 [Example 75]
≤ 10 | ≤ 100 | 10 to 100 | CC/C(Nc1cnn(C)c1)=C1/C(=O)Nc2ccc(C(=O)NCC(F)(F)F)cc21 [Example 77]
